# Data from BindingDB's records for doi:10.1021/jm301144g (Human Biomolecular Research Institute, 2012).
# Biological target: TGF-beta receptor type-2 (Homo sapiens, UniProt P37173)
# Assay: Inhibition of TGBR2 signaling in human HEK293T cells assessed as inhibition of SMAD activation after 2 to 22 hrs by dual Luciferase Assay
# TGF-beta receptor type-2, sequence (P37173 whole entry): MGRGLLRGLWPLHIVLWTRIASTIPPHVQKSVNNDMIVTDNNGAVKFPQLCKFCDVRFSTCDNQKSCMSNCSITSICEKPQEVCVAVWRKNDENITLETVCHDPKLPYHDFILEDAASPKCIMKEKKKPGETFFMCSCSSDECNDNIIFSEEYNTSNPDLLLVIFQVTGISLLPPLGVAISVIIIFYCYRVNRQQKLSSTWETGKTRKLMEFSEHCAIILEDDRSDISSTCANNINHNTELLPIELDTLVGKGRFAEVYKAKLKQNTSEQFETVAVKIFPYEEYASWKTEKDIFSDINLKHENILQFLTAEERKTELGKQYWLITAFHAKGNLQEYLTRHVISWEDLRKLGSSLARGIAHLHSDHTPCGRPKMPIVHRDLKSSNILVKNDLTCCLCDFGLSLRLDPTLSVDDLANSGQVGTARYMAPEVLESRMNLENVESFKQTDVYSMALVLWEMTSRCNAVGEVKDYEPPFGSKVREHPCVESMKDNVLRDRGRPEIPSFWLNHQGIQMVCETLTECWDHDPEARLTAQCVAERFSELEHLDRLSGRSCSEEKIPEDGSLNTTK
compound,measurement,value
CCOC(=O)C1=C(C)N=C2CC(C)(C)CC(=O)C2C1c1ccc(-c2ccccc2)cc1 (stereo unspecified),IC50,0.46 µM
